The values that follow come from US20110098177A1, “METHODS AND COMPOSITIONS OF PLANT MICRONUTRIENTS” (NOVUS INTERNATIONAL INC., priority 2006, published 2011).

Read-outs that look alike come from different tables or passages of the source.

Holding throughout (assay type): in vivo
Data set [1] has as its system soybean plants (Asgrow 1102). Briefly: Soybean seed yield (Examples 11-12). How it is done:
The following experiments were performed on soybean plants growing in open-field plots during the summer and fall of 2008 at two production fields in West Central Minnesota. […] Trial design was a randomized complete block with 4 replications. Each plot measured 10' by 30' and consisted of five 22'' rows. Although all five rows of each plot were treated, only the center three rows (25' in length) of each plot were machine harvested. The two fields selected for these studies had historical Iron Deficiency Chlorosis (IDC) issues. The two field sites were planted by farmers with elite Roundup Ready commodity type soybean varieties with IDC tolerance (Asgrow 1102, Monsanto Corp.). […] BIOX-M was applied at a rate of 1.12 kg Mn/ha. […] All V4 treatments were applied in 10 gallons per acre of water with a backpack sprayer with a hand boom designed to “band” apply product directly to the plant row. Three nozzles with ConeJet TXVS-2 tips were oriented on either side and over the top of each row. This maximized the applied product to the plant tissue itself and minimized application of product to the soil surface. […] The V6 treatments (where applicable) were applied in 20 gallons per acre of water to increase the suspension of the BIOX products. Soybean seed was harvested after soybean maturity was reached (3 October at […], and 17 Oct. 2008 at Foxhome) and seed yields for each experimental treatment group were determined. In addition, seed samples from each treatment were dried to 13% moisture content, then analyzed for protein and oil content.

A further data set has as its system Florida-47 tomato. Briefly: Foliar nutrient concentration at 6 WAT, greenhouse Fall 2007, tomato. The note with it: Example 2; crop not specified (tomato / bell pepper). The procedure:
The following experiments were performed in a green house during the fall of 2007 at GCREC, Balm, University of Florida. Fifteen products, at 3 different application rates were examined. The plot size was 2-gallon pots. Crop set-up, procedures and variables were as follows.
Transplants of ‘Florida-47’ tomato and ‘Aristotle’ bell pepper plants in the 4-true leaf stage (about 6 inches tall) were planted in 2-gal pots on Aug. 27, 2007. Pots were filled with a commercially available planting medium. This medium was selected based on the mineral composition of the products to be applied without providing significant nutritional inputs to the crops. Irrigation was provided with drip lines delivering between 0.50 and 0.33 gal/day/pot for tomato and bell pepper, respectively, and the crops were irrigated three times per day. No foliar pesticides were necessary. […]
Medium nutrient concentration was determined 1 week before treatment. […] The foliar tissue analysis was performed at 6 WAT and the concentration of N, P, K, Mg, Ca, S, B, Zn, Mn, Fe, and Cu was determined by a commercial laboratory. Plant toxicity was determined at 4 WAT by using a 0-10 visual scale, where 0=no visible damage and 10=total plant death. […]
Data were analyzed using a general linear model, and means were separated using orthogonal contrasts at the 5% significance level.

The test system of data set [2] is Tygress tomato plants. The note with it: for Toxicity (0-10): 0=no injury, 10=plant death. In outline: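 Greenhouse 'Tygress' tomatoes in micronutrient-deficient medium received foliar micronutrient treatments at 6 weeks after transplanting, 200 mL/plant in deionized water with non-ionic surfactant. Foliar injury rated visually 0 (none) to 10 (plant death); randomized complete block, 6 replications, LSD at 5%.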

Data set [3] concerns Tygress tomato plants. Briefly: Yields of tomato fruits, greenhouse spring 2009 (Examples 13-15). Put shortly: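 Greenhouse 'Tygress' tomatoes in micronutrient-deficient medium received foliar Cu/Fe source treatments at 6 WAT (200 mL/plant, deionized water plus non-ionic surfactant). Marketable fruit was harvested three times from 10 WAT and graded by size. RCBD, 6 replications, GLM with LSD at 5%.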

Where [4] appears, read: BIOX-Cu at 0.46 and 0.55 lb/acre, Cu-sulfate at 0.8 lb/acre, BIOX-EDC at 0.4 lb/acre.

For the compound `CSCCC(O)C(=O)[O-].CSCCC(O)C(=O)[O-].[Mn+2]` (stereo not drawn) [BIOX-M, Mn-HMTBA], the Yield in data set [1] (7.0 kg/ha, V4, Foxhome) is 43.63 Bu/A; in data set [1] (7.0 kg/ha, V4, Renville) it was 24.15 Bu/A.
Take `CSCCC(O)C(=O)[O-].CSCCC(O)C(=O)[O-].[Zn+2]` (stereo not drawn) [BIOX-Z, Zn-HMTBA]: the “Foliar Zn concentration relative to the non-Zn control” value in the data set on Florida-47 tomato is “approximately 3 times”.
Take `CSCCC(O)C(=O)[O-].CSCCC(O)C(=O)[O-].[Cu+2]` (stereo not drawn) [BIOX-Cu, Cu-HMTBA]: in the data set on Florida-47 tomato, the “Foliar Cu relative to the non-Cu control” value is “about 4 times”. For the same compound, in the data set on Tygress tomato plants [2] (setting [4]), the “Toxicity compared to non-treated control plants, statement” value is listed as “increased levels of toxicity”. Besides, the “Toxicity (0-10)” value came out at 0 in the data set with Tygress tomato plants [2] (Cu 0.14 lb/acre), 1 in the data set with Tygress tomato plants [2] (Cu 0.28 lb/acre), 5 with Tygress tomato plants [2] (Cu 0.46 lb/acre) and 6 with Tygress tomato plants [2] (Cu 0.55 lb/acre). In addition, the “Toxicity, statement” value in the data set on Tygress tomato plants [2] (the two low levels of BIOX-Cu (0.14 and 0.28 lb/acre)) is on record as “no toxic effects”. Further, the “Marketable tomato yields compared to non-treated control, statement” value was “did not alter marketable yields relative to the non-treated control” in the data set on Tygress tomato plants [3] (setting [4]); “significantly increased marketable tomato yields” in the data set with Tygress tomato plants [3] (BIOX-Cu at the 0.14 and 0.28 lb/acre levels). For the same compound, the Marketable yield was 2350 a g/plant in the data set on Tygress tomato plants [3] (Cu 0.14 lb/acre), 2500 a g/plant with Tygress tomato plants [3] (Cu 0.28 lb/acre), 1250 b g/plant in the data set on Tygress tomato plants [3] (Cu 0.46 lb/acre) and 1700 b g/plant with Tygress tomato plants [3] (Cu 0.55 lb/acre).
On to Fe-HMTBA [BIOX-Fe], for which the “Toxicity (0-10)” value came out at 0 with Tygress tomato plants [2] (Fe 0.28 lb/acre); 0 with Tygress tomato plants [2] (Fe 0.57 lb/acre); 1 in the data set with Tygress tomato plants [2] (Fe 1.12 lb/acre); 1 with Tygress tomato plants [2] (Fe 1.74 lb/acre); 2 in the data set with Tygress tomato plants [2] (Fe 2.3 lb/acre). For the same compound, the “Toxicity relative to the non-treated control, statement” value in the data set on Tygress tomato plants [2] (all levels of BIOX-Fe, Fe-sulfate at 2.0 lb/acre, BIOX-EDF at 0.3 lb/acre) is on record as “no increased toxicity relative to the non-treated control”. Further, the Yield came to 46.01 Bu/A in data set [1] (0.558 kg/ha, V4, V6, Foxhome); 27.65 Bu/A in data set [1] (0.558 kg/ha, V4, V6, Renville); 43.17 Bu/A in data set [1] (0.558 kg/ha, V4, Foxhome); 27.92 Bu/A in data set [1] (0.558 kg/ha, V4, Renville); 43.43 Bu/A in data set [1] (1.12 kg/ha, V4, V6, Foxhome); 26.62 Bu/A in data set [1] (1.12 kg/ha, V4, V6, Renville). Moreover, the Yield was found to be 44.23 Bu/A in data set [1] (1.12 kg/ha, V4, Foxhome) and 27.43 Bu/A in data set [1] (1.12 kg/ha, V4, Renville). In addition, the “Marketable tomato yields compared to non-treated control, statement” value in the data set with Tygress tomato plants [3] (BIOX-Fe at all levels, Fe-sulfate at 2.0 lb/acre, BIOX-EDF at 0.3 lb/acre) is “significantly higher marketable tomato yields than the non-treated control”. The Marketable yield in the data set on Tygress tomato plants [3] (Fe 0.28 lb/acre) was determined as 1750 g/plant; with Tygress tomato plants [3] (Fe 0.57 lb/acre) it was 1900 g/plant; with Tygress tomato plants [3] (Fe 1.12 lb/acre) it was 2100 g/plant; in the data set on Tygress tomato plants [3] (Fe 1.74 lb/acre), 1900 g/plant; in the data set on Tygress tomato plants [3] (Fe 2.3 lb/acre) it was 2400 g/plant.
